Read-outs that look alike come from different tables or passages of the source.
Key:
RS4; 11 = experiment: Cell viability assay (MTS) in RS4; 11 cells; format: cell-based; conditions: Homo sapiens, RS4-11
Description: (§1) Acute lymphoblastic leukemia cells (MOLT-4 and RS4; 11) were incubated with increasing concentrations of Bcl-xL degraders for 48 h. Cell viability was measured by tetrazolium-based MTS assay.

MOLT-4 = experiment: Cell viability assay (MTS) in MOLT-4 cells; format: cell-based; conditions: Homo sapiens, MOLT-4
Description: as §1

[1] = Table 2, 48 hr, MTS, read-out: Anti-Cancer Activity IC50 (48 hr) RS4, 11
[2] = Table 2, 48 hr, MTS, read-out: Anti-Cancer Activity IC50 (48 hr) MOLT-4
[3] = Table 4, 48 h, read-out: RS4 48 h IC50
[4] = Table 4, 48 h, read-out: MOLT-4 48 h IC50

Compound | IC50 (RS4; 11; [1]) | IC50 (RS4; 11; Table 5, 48 h, read-out: RS4 48 h IC50) | IC50 (MOLT-4; [2]) | IC50 (MOLT-4; Table 5, 48 h, read-out: MOLT-4 48 h IC50) | IC50 (RS4; 11; [3]) | IC50 (MOLT-4; [4])
Cc1ncsc1-c1ccc([C@H](C)NC(=O)[C@@H]2C[C@@H](O)CN2C(=O)[C@@H](NC(=O)CCCCCCC(=O)N2CCN(CC3(C)CCC(c4ccc(Cl)cc4)=C(CN4CCN(c5ccc(C(=O)NS(=O)(=O)c6ccc(N[C@H](CCN7C[C@H]8C[C@@H]7CO8)CSc7ccccc7)c([N+](=O)[O-])c6)cc5)CC4)C3)CC2)C(C)(C)C)cc1 (stereo partly drawn) [Compound 52, (2S,4R)-1-((2S)-2-(8-(4-((6-((4-(4-(((4-(((R)-4-((1R,4R)-2-oxa-5-azabicyclo[2.2.1]heptan-5-yl)-1-(phenylthio)butan-2-yl)amino)-3-nitrophenyl)sulfonyl)carbamoyl)phenyl)piperazin-1-yl)methyl)-4′-chloro-4-methyl-2,3,4,5-tetrahydro-[1,1′-biphenyl]-4-yl)methyl)piperazin-1-yl)-8-oxooctanamido)-3,3-dimethylbutanoyl)-4-hydroxy-N—((S)-1-(4-(4-methylthiazol-5-yl)phenyl)ethyl)pyrrolidine-2-carboxamide] | < 20 nM | 2.8 nM | < 20 nM | 15.2 nM | – | –
Cc1ncsc1-c1ccc([C@H](C)NC(=O)[C@@H]2C[C@@H](O)CN2C(=O)[C@@H](NC(=O)CCCCCCC(=O)N2CCN(C[C@]3(C)CCC(c4ccc(Cl)cc4)=C(CN4CCN(c5ccc(C(=O)NS(=O)(=O)c6ccc(N[C@H](CCN7CC8CCC7C8)CSc7ccccc7)c([N+](=O)[O-])c6)cc5)CC4)C3)CC2)C(C)(C)C)cc1 (stereo partly drawn) [Compound 53, (2S,4R)-1-((2S)-2-(8-(4-(((4R)-6-((4-(4-(((4-(((2R)-4-(2-azabicyclo[2.2.1]heptan-2-yl)-1-(phenylthio)butan-2-yl)amino)-3-nitrophenyl)sulfonyl)carbamoyl)phenyl)piperazin-1-yl)methyl)-4′-chloro-4-methyl-2,3,4,5-tetrahydro-[1,1′-biphenyl]-4-yl)methyl)piperazin-1-yl)-8-oxooctanamido)-3,3-dimethylbutanoyl)-4-hydroxy-N—((S)-1-(4-(4-methylthiazol-5-yl)phenyl)ethyl)pyrrolidine-2-carboxamide] | < 20 nM | – | 20 to 100 nM | – | – | –
Cc1ncsc1-c1ccc([C@H](C)NC(=O)[C@@H]2C[C@@H](O)CN2C(=O)[C@@H](NC(=O)CCCCC(=O)N2CCC(C3CCN(CC4(C)CCC(c5ccc(Cl)cc5)=C(CN5CCN(c6ccc(C(=O)NS(=O)(=O)c7ccc(N[C@H](CCN8C[C@H]9C[C@@H]8CO9)CSc8ccccc8)c([N+](=O)[O-])c7)cc6)CC5)C4)CC3)CC2)C(C)(C)C)cc1 (stereo partly shown) [Compound 54] | < 20 nM | – | < 20 nM | – | – | –
Cc1ncsc1-c1ccc([C@H](C)NC(=O)[C@@H]2C[C@@H](O)CN2C(=O)[C@@H](NC(=O)CCCCCCC(=O)N2CCN(C[C@]3(C)CCC(c4ccc(Cl)cc4)=C(CN4CCN(c5ccc(C(=O)NS(=O)(=O)c6ccc(N[C@H](CCN7CCCOCC7)CSc7ccccc7)c([N+](=O)[O-])c6)cc5)CC4)C3)CC2)C(C)(C)C)cc1 [Compound 55, (2S,4R)-1-((S)-2-(8-(4-(((R)-6-((4-(4-(((4-(((R)-4-(1,4-oxazepan-4-yl)-1-(phenylthio)butan-2-yl)amino)-3-nitrophenyl)sulfonyl)carbamoyl)phenyl)piperazin-1-yl)methyl)-4′-chloro-4-methyl-2,3,4,5-tetrahydro-[1,1′-biphenyl]-4-yl)methyl)piperazin-1-yl)-8-oxooctanamido)-3,3-dimethylbutanoyl)-4-hydroxy-N—((S)-1-(4-(4-methylthiazol-5-yl)phenyl)ethyl)pyrrolidine-2-carboxamide] | < 20 nM | – | < 20 nM | – | 3.2 nM | 11 nM
Cc1ncsc1-c1ccc([C@H](C)NC(=O)[C@@H]2C[C@@H](O)CN2C(=O)[C@@H](NC(=O)CCCCCCC(=O)N2CCN(C[C@]3(C)CCC(c4ccc(Cl)cc4)=C(CN4CCN(c5ccc(C(=O)NS(=O)(=O)c6ccc(N[C@H](CCN7CCCCCC7)CSc7ccccc7)c([N+](=O)[O-])c6)cc5)CC4)C3)CC2)C(C)(C)C)cc1 [Compound 56] | < 20 nM | – | < 20 nM | – | – | –
Cc1ncsc1-c1ccc([C@H](C)NC(=O)[C@@H]2C[C@@H](O)CN2C(=O)[C@@H](NC(=O)CCCCCCC(=O)N2CCN(C[C@]3(C)CCC(c4ccc(Cl)cc4)=C(CN4CCN(c5ccc(C(=O)NS(=O)(=O)c6ccc(N[C@H](CCN7CCc8cccnc8C7)CSc7ccccc7)c([N+](=O)[O-])c6)cc5)CC4)C3)CC2)C(C)(C)C)cc1 [Compound 57, (2S,4R)-1-((S)-2-(8-(4-(((R)-4′-chloro-6-((4-(4-(((4-(((R)-4-(5,8-dihydro-1,7-naphthyridin-7(6H)-yl)-1-(phenylthio)butan-2-yl)amino)-3-nitrophenyl)sulfonyl)carbamoyl)phenyl)piperazin-1-yl)methyl)-4-methyl-2,3,4,5-tetrahydro-[1,1′-biphenyl]-4-yl)methyl)piperazin-1-yl)-8-oxooctanamido)-3,3-dimethylbutanoyl)-4-hydroxy-N—((S)-1-(4-(4-methylthiazol-5-yl)phenyl)ethyl)pyrrolidine-2-carboxamide] | 20 to 100 nM | – | 100 to 500 nM | – | – | –
Cc1ncsc1-c1ccc([C@H](C)NC(=O)[C@@H]2C[C@@H](O)CN2C(=O)[C@@H](NC(=O)CCCCCCC(=O)N2CCN(C[C@]3(C)CCC(c4ccc(Cl)cc4)=C(CN4CCN(c5ccc(C(=O)NS(=O)(=O)c6ccc(N[C@H](CCN7CCCCC7)CSc7ccccc7)c(S(=O)(=O)C(F)(F)F)c6)cc5)CC4)C3)CC2)C(C)(C)C)cc1 [Compound 58, (2S,4R)-1-((S)-2-(8-(4-(((R)-4′-chloro-4-methyl-6-((4-(4-(((4-(((R)-1-(phenylthio)-4-(piperidin-1-yl)butan-2-yl)amino)-3-((trifluoromethyl)sulfonyl)phenyl)sulfonyl)carbamoyl)phenyl)piperazin-1-yl)methyl)-2,3,4,5-tetrahydro-[1,1′-biphenyl]-4-yl)methyl)piperazin-1-yl)-8-oxooctanamido)-3,3-dimethylbutanoyl)-4-hydroxy-N—((S)-1-(4-(4-methylthiazol-5-yl)phenyl)ethyl)pyrrolidine-2-carboxamide] | < 20 nM | – | < 20 nM | – | – | –
Cc1ncsc1-c1ccc([C@H](C)NC(=O)[C@@H]2C[C@@H](O)CN2C(=O)[C@@H](NC(=O)CCCCCCC(=O)N2CCN(C[C@]3(C)CCC(c4ccc(Cl)cc4)=C(CN4CCN(c5ccc(C(=O)NS(=O)(=O)c6ccc(N[C@H](CCN7CCCOCC7)CSc7ccccc7)c(S(=O)(=O)C(F)(F)F)c6)cc5)CC4)C3)CC2)C(C)(C)C)cc1 [Compound 59, (2S,4R)-1-((S)-2-(8-(4-(((R)-6-((4-(4-(((4-(((R)-4-(1,4-oxazepan-4-yl)-1-(phenylthio)butan-2-yl)amino)-3-((trifluoromethyl)sulfonyl)phenyl)sulfonyl)carbamoyl)phenyl)piperazin-1-yl)methyl)-4′-chloro-4-methyl-2,3,4,5-tetrahydro-[1,1′-biphenyl]-4-yl)methyl)piperazin-1-yl)-8-oxooctanamido)-3,3-dimethylbutanoyl)-4-hydroxy-N—((S)-1-(4-(4-methylthiazol-5-yl)phenyl)ethyl)pyrrolidine-2-carboxamide] | < 20 nM | – | < 20 nM | – | 1.6 nM | 0.7 nM
Cc1ncsc1-c1ccc([C@H](C)NC(=O)[C@@H]2C[C@@H](O)CN2C(=O)[C@@H](NC(=O)CCCCCCC(=O)N2CCN(C[C@]3(C)CCC(c4ccc(Cl)cc4)=C(CN4CCN(c5ccc(C(=O)NS(=O)(=O)c6ccc(N[C@H](CCN7CCCCCC7)CSc7ccccc7)c(S(=O)(=O)C(F)(F)F)c6)cc5)CC4)C3)CC2)C(C)(C)C)cc1 [Compound 60, (2S,4R)-1-((S)-2-(8-(4-(((R)-6-((4-(4-(((4-(((R)-4-(azepan-1-yl)-1-(phenylthio)butan-2-yl)amino)-3-((trifluoromethyl)sulfonyl)phenyl)sulfonyl)carbamoyl)phenyl)piperazin-1-yl)methyl)-4′-chloro-4-methyl-2,3,4,5-tetrahydro-[1,1′-biphenyl]-4-yl)methyl)piperazin-1-yl)-8-oxooctanamido)-3,3-dimethylbutanoyl)-4-hydroxy-N—((S)-1-(4-(4-methylthiazol-5-yl)phenyl)ethyl)pyrrolidine-2-carboxamide] | < 20 nM | – | < 20 nM | – | – | –
Cc1ncsc1-c1ccc([C@H](C)NC(=O)[C@@H]2C[C@@H](O)CN2C(=O)[C@@H](NC(=O)CCCCCCC(=O)N2CCN(CC3(C)CCC(c4ccc(Cl)cc4)=C(CN4CCN(c5ccc(C(=O)NS(=O)(=O)c6ccc(N[C@H](CCN(C)C)CSc7ccccc7)c(S(=O)(=O)C(F)(F)F)c6)cc5)CC4)C3)CC2)C(C)(C)C)cc1 (stereo partly shown) [Compound 61] | < 20 nM | – | < 20 nM | – | – | –
CCN(CCO)CC[C@H](CSc1ccccc1)Nc1ccc(S(=O)(=O)NC(=O)c2ccc(N3CCN(CC4=C(c5ccc(Cl)cc5)CCC(C)(CN5CCN(C(=O)CCCCCCC(=O)N[C@H](C(=O)N6C[C@H](O)C[C@H]6C(=O)N[C@@H](C)c6ccc(-c7scnc7C)cc6)C(C)(C)C)CC5)C4)CC3)cc2)cc1S(=O)(=O)C(F)(F)F (stereo partly drawn) [Compound 63, (2S,4R)-1-((2S)-2-(8-(4-((4′-chloro-6-((4-(4-(((4-(((R)-4-(ethyl(2-hydroxyethyl)amino)-1-(phenylthio)butan-2-yl)amino)-3-((trifluoromethyl)sulfonyl)phenyl)sulfonyl)carbamoyl)phenyl)piperazin-1-yl)methyl)-4-methyl-2,3,4,5-tetrahydro-[1,1′-biphenyl]-4-yl)methyl)piperazin-1-yl)-8-oxooctanamido)-3,3-dimethylbutanoyl)-4-hydroxy-N—((S)-1-(4-(4-methylthiazol-5-yl)phenyl)ethyl)pyrrolidine-2-carboxamide] | < 20 nM | – | 20 to 100 nM | – | – | –
